This passage reports T/C results from PubChem BioAssay AID248 (DTP/NCI, 2004).

The subject of this experiment is L1210 leukemia ip in BDF1 mice, survival T/C. The experiment can be described thus: NCI In Vivo Anticancer Drug Screen. Data for tumor model L1210 Leukemia (intraperitoneal) in B6D2F1 (BDF1) mice. Conditions: endpoint: mean survival time, higher = longer survival. The method in brief:
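Value reflects the ratio of survival in compound-treated mice to survival in vehicle-treated controls, with both groups carrying the same transplanted tumor.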

Where [1] appears, read: dose: 100.0 mg/kg/injection, schedule: Q01DX001 (ip), vehicle: saline.
[2] abbreviates: dose: 100.0 mg/kg/injection, schedule: Q01DX009 (ip), vehicle: saline with Tween-80.
Where [3] appears, read: dose: 100.0 mg/kg/injection, schedule: Q04DX003 (ip), vehicle: saline with Tween-80.
Where [4] appears, read: dose: 200.0 mg/kg/injection, schedule: Q01DX009 (ip), vehicle: saline with Tween-80.
Where [5] appears, read: dose: 200.0 mg/kg/injection, schedule: Q04DX003 (ip), vehicle: saline with Tween-80.
Setting [6] is: dose: 100.0 mg/kg/injection, schedule: Q04DX003 (ip), vehicle: Klucel (hydroxypropylcellulose) (HPC).
Where [7] appears, read: dose: 200.0 mg/kg/injection, schedule: Q04DX003 (ip), vehicle: Klucel (hydroxypropylcellulose) (HPC).
Where [8] appears, read: dose: 400.0 mg/kg/injection, schedule: Q04DX003 (ip), vehicle: Klucel (hydroxypropylcellulose) (HPC).
The mark [9] stands for this setting: dose: 100.0 mg/kg/injection, schedule: Q01DX009 (ip), vehicle: Klucel (hydroxypropylcellulose) (HPC).
[10] abbreviates: dose: 200.0 mg/kg/injection, schedule: Q01DX009 (ip), vehicle: Klucel (hydroxypropylcellulose) (HPC).
Setting [11] is: dose: 400.0 mg/kg/injection, schedule: Q01DX009 (ip), vehicle: Klucel (hydroxypropylcellulose) (HPC).

“And” between values parts separate entries of the source, which are not always exact repeats. Identical values can stand only once. Toxic doses and inconclusive results are not listed.

Consider `CC(C)(C)C(=O)CC(=O)C(C)(C)C`, for which the T/C runs as follows: under setting [1], 101 % of control; (dose: 100.0 mg/kg/injection, schedule: Q01DX009 (ip), vehicle: other) 92 % of control; under setting [2], 91 % of control; (dose: 100.0 mg/kg/injection, schedule: Q04DX002 (ip), vehicle: other) 102 % of control; (dose: 100.0 mg/kg/injection, schedule: Q04DX002 (ip), vehicle: saline) 116 % of control; under setting [3], 103 % of control. For the same molecule, the T/C is 98 % of control (dose: 100.0 mg/kg/injection, schedule: Q04DX003 (ip), vehicle: saline); 110 % of control (dose: 200.0 mg/kg/injection, schedule: Q01DX001 (ip), vehicle: saline); 97 % of control (dose: 200.0 mg/kg/injection, schedule: Q01DX009 (ip), vehicle: other); 97 % of control under setting [4]; 97 % of control (dose: 200.0 mg/kg/injection, schedule: Q04DX002 (ip), vehicle: other); 101 % of control (dose: 200.0 mg/kg/injection, schedule: Q04DX002 (ip), vehicle: saline). The T/C runs as follows: under setting [5], 103 % of control; (dose: 200.0 mg/kg/injection, schedule: Q04DX003 (ip), vehicle: saline) 103 % of control; (dose: 400.0 mg/kg/injection, schedule: Q01DX001 (ip), vehicle: saline) 102 % of control; (dose: 400.0 mg/kg/injection, schedule: Q01DX009 (ip), vehicle: other) 97 % of control; (dose: 400.0 mg/kg/injection, schedule: Q01DX009 (ip), vehicle: saline with Tween-80) 91 % of control; (dose: 400.0 mg/kg/injection, schedule: Q04DX002 (ip), vehicle: other) 102 % of control. Also, the T/C (dose: 400.0 mg/kg/injection, schedule: Q04DX002 (ip), vehicle: saline) was 108 % of control and the T/C (dose: 400.0 mg/kg/injection, schedule: Q04DX003 (ip), vehicle: saline) was 95 % of control.

As for `NNCC(F)(F)F`, the T/C under setting [1] is 101 % of control.

For `C=C(C)CNc1ccccc1`, the T/C was 95 % of control under setting [2]; 97 % of control under setting [3]; 93 % of control under setting [4]; 97 % of control under setting [5]; 103 % of control (dose: 400.0 mg/kg/injection, schedule: Q04DX003 (ip), vehicle: saline with Tween-80).

Turning to `CCc1ncc(C)n1Cc1ccccc1`, the T/C was 109 % of control (dose: 6.25 mg/kg/injection, schedule: Q01DX009 (ip), vehicle: saline); 102 % of control (dose: 12.5 mg/kg/injection, schedule: Q01DX009 (ip), vehicle: saline); 102 % of control and 115 % of control (dose: 25.0 mg/kg/injection, schedule: Q01DX009 (ip), vehicle: saline).

In the case of `Nc1ncnc2nc(-c3ccc(OCCCOc4ccccc4)c(Cl)c3)[nH]c12`, the T/C (dose: 6.25 mg/kg/injection, schedule: Q01DX001 (ip), vehicle: saline with Tween-80) was 94 % of control; the T/C (dose: 12.5 mg/kg/injection, schedule: Q01DX001 (ip), vehicle: saline with Tween-80) is 89 % of control; the T/C (dose: 50.0 mg/kg/injection, schedule: Q01DX001 (ip), vehicle: saline with Tween-80) is 88 % of control.

As to `Cc1ccc(NC(=O)N2CC2(C)C)cc1NC(=O)N1CC1(C)C`, the T/C is 121 % of control under setting [6]; 116 % of control under setting [7]; 120 % of control (dose: 265.0 mg/kg/injection, schedule: Q04DX003 (ip), vehicle: Klucel (hydroxypropylcellulose) (HPC)); 111 % of control under setting [8]; 94 % of control (dose: 600.0 mg/kg/injection, schedule: Q04DX003 (ip), vehicle: Klucel (hydroxypropylcellulose) (HPC)).

`CCOc1cc[n+](C)c2ccc(C)cc12`: the T/C was 102 % of control (dose: 6.25 mg/kg/injection, schedule: Q04DX002 (ip), vehicle: saline with Tween-80) and 98 % of control (dose: 12.5 mg/kg/injection, schedule: Q04DX002 (ip), vehicle: saline with Tween-80).

With `OCC1OC(n2cnc3c(SCc4ccccc4)ncnc32)C(O)C1O` (stereo unspecified), the T/C is 102 % of control (dose: 38.5 mg/kg/injection, schedule: Q01DX009 (ip), vehicle: saline); 111 % of control (dose: 58.0 mg/kg/injection, schedule: Q01DX009 (ip), vehicle: carboxymethylcellulose (CMC)); 124 % of control (dose: 58.0 mg/kg/injection, schedule: Q01DX009 (ip), vehicle: saline); 124 % of control (dose: 88.0 mg/kg/injection, schedule: Q01DX009 (ip), vehicle: carboxymethylcellulose (CMC)); 152 % of control (dose: 88.0 mg/kg/injection, schedule: Q01DX009 (ip), vehicle: saline); 113 % of control (dose: 132.0 mg/kg/injection, schedule: Q01DX009 (ip), vehicle: carboxymethylcellulose (CMC)). For the same molecule, the T/C runs as follows: (dose: 132.0 mg/kg/injection, schedule: Q01DX009 (ip), vehicle: saline) 152 % of control; (dose: 200.0 mg/kg/injection, schedule: Q01DX009 (ip), vehicle: carboxymethylcellulose (CMC)) 105 % of control.

As for `FC(F)(F)c1cccc(NC(=S)SCc2ccccc2)c1`, the T/C (dose: 75.0 mg/kg/injection, schedule: Q04DX003 (ip), vehicle: saline with Tween-80) was 95 % of control; the T/C (dose: 150.0 mg/kg/injection, schedule: Q04DX003 (ip), vehicle: saline with Tween-80) is 98 % of control; the T/C (dose: 300.0 mg/kg/injection, schedule: Q04DX003 (ip), vehicle: saline with Tween-80) was 102 % of control.

Turning to `CCCCCCCC(C)NCCO` (stereo unspecified), where the note is “dose: 75.0 mg/kg/injection, schedule: Q01DX001 (ip), vehicle: carboxymethylcellulose (CMC)”, the T/C is 98 % of control.

With `BrC(Br)c1ccc2ccccc2n1`, the T/C by setting is: under setting [9], 89 % of control; under setting [6], 95 % of control; under setting [10], 94 % of control; under setting [7], 95 % of control; under setting [11], 94 % of control; under setting [8], 97 % of control.

In the case of `O=C(C(Cl)Cl)N(O)c1ccccc1OCc1ccccc1`, the T/C by setting is: (dose: 100.0 mg/kg/injection, schedule: Q01DX001 (ip), vehicle: saline with Tween-80) 98 % of control; (dose: 200.0 mg/kg/injection, schedule: Q01DX001 (ip), vehicle: saline with Tween-80) 112 % of control; (dose: 400.0 mg/kg/injection, schedule: Q01DX001 (ip), vehicle: saline with Tween-80) 98 % of control.

On to `O=c1[nH][nH]c(=O)c2[nH]cnc12`, for which the T/C by setting is: under setting [9], 107 % of control; under setting [6], 104 % of control; under setting [10], 103 % of control; under setting [7], 104 % of control; under setting [11], 117 % of control; under setting [8], 117 % of control.

`COc1ccc(C(=O)C(C)C(C)=O)c(OCc2ccccc2)c1OC` (stereo unspecified): the T/C by setting is: (dose: 100.0 mg/kg/injection, schedule: Q01DX001 (ip), vehicle: carboxymethylcellulose (CMC)) 96 % of control; (dose: 200.0 mg/kg/injection, schedule: Q01DX001 (ip), vehicle: carboxymethylcellulose (CMC)) 98 % of control; (dose: 400.0 mg/kg/injection, schedule: Q01DX001 (ip), vehicle: carboxymethylcellulose (CMC)) 93 % of control.

As for `CC(C)OP(=O)(OC(C)C)C1=C(P(=O)(OC(C)C)OC(C)C)C(F)(F)C(F)(F)C1(F)F`, the T/C (dose: 9.5 mg/kg/injection, schedule: Q01DX001 (ip), vehicle: other) was 106 % of control; the T/C (dose: 19.0 mg/kg/injection, schedule: Q01DX001 (ip), vehicle: other) is 95 % of control; the T/C (dose: 38.0 mg/kg/injection, schedule: Q01DX001 (ip), vehicle: other) is 89 % of control.

For the molecule `CCOC(=O)C(C)C1=CCCc2c(C)ccc(C)c21` (stereo unspecified), the T/C is, setting by setting: under setting [9], 91 % of control; under setting [6], 98 % of control; under setting [10], 94 % of control; under setting [7], 97 % of control; under setting [11], 94 % of control; under setting [8], 101 % of control.

`Cc1nc(N)[nH]c(=O)c1CCCOc1ccc([N+](=O)[O-])cc1`: the T/C (dose: 12.5 mg/kg/injection, schedule: Q04DX002 (ip), vehicle: saline) was 106 % of control; the T/C (dose: 25.0 mg/kg/injection, schedule: Q04DX002 (ip), vehicle: saline) was 102 % of control; the T/C (dose: 50.0 mg/kg/injection, schedule: Q04DX002 (ip), vehicle: saline) is 95 % of control.
